Drawing on the OPERA property sets (Mansouri et al. 2018), this text covers logP for 40 compounds.

As for `CC(C)(C)c1nnc(N)o1`, the logP amounted to 0.48. The same measure for `CCCCCC[n+]1cc(C)cc(C)c1.[I-]`: -1.19. The same measure for `COc1cc(CC(=O)O)ccc1OCC1CCCCC1`: 3.35; for `CSc1ccc2c(c1)C(c1ccccc1)=NCC(=O)N2C`: 2.95. The same measure for `CC(N)Cc1ccc2c(c1)OCO2` (stereo not given): 1.64; for `COc1ccc(OC(=O)CNC(=O)c2ccccc2)cc1`: 2.28; for `O=C1CN=C(c2ccccc2)c2cc([N+](=O)[O-])ccc2N1CC(O)CO` (stereo not given): 0.96.

`O=C1NC(=O)C(=Cc2ccc([N+](=O)[O-])o2)S1` came in with a log partition coefficient (logP) of 0.63.

`O=S(=O)(Nc1cn[nH]c1)c1ccccc1` gave a logP of 0.87.

Turning to `O=[N+]([O-])c1cnc(N=C2OCCN2CCO)s1`, the logP was determined as 0.43.

Take `CCC(C)C(NC(C)=O)C(=O)NC` (stereo not given): the logP stood at 0.14. The same measure for `CCOC(=O)C(C#N)=NNc1cc(Cl)c(Cl)c(Cl)c1`: 5.03; for `COc1cc(Cc2cnc(N)nc2N)cc(Cl)c1OC`: 1.92. The same measure for `Clc1cc(Cl)c(N=C2NCCN2)c(Cl)c1`: 2.18. The same measure for `COc1c(N(C)C)cc(Cc2cnc(N)nc2N)cc1N(C)C(C)=O`: 1.01; for `CNc1nc(=O)cc(-c2ccc([N+](=O)[O-])o2)s1`: 0.86; for `COc1cc(OC)c(N=C2NCCN2)cc1Cl`: 1.38.

`COc1nc(C)cc(-n2[nH]c(C)cc2=O)n1` returned a logP of 1.03. The same measure for `CCCCC1OC(=O)c2cc([N+](=O)[O-])ccc21` (stereo not given): 2.92; for `O=[N+]([O-])c1nccn1C1OC(CO)C(O)C(O)C1O` (stereo not given): -1.4. The same measure for `COc1cc(-n2[nH]c(C)cc2=O)nc(C)n1`: 0.72; for `CNP(=O)(OC)Oc1ccc(SC)cc1` (stereo not given): 1.81. In turn, `COC12C(COC(N)=O)C3=C(C(=O)C(C)=C(Nc4ccccc4)C3=O)N1CC1NC12` (stereo not given) gave a logP of 1.3.

Take `Cc1cccc(C)c1N=C1NCCN1`: the logP came to 1.45. Compound `CCOP(=S)(OCC)Oc1ccc(S(C)(=O)=O)cc1` displayed a log partition coefficient (logP) of 2.56.

As for `Nc1nc(N)nc(-c2cc(Br)ccc2Cl)n1`, the logP came to 2.04.

For the compound `CC(=O)OCC1=C(C(=O)O)N2C(=O)[C@@H](NC(=O)CBr)[C@H]2SC1`, the logP was -0.7. The same measure for `COc1cc(Cc2cnc(N)nc2N)cc(OC)c1OCC#N`: 0.72; for `CC(=O)C(C#N)=NNc1cc(Cl)cc(Cl)c1`: 4.68; for `Nc1ncc(Cc2cc(Cl)c(Cl)c(Cl)c2)c(N)n1`: 3.64.

In turn, `Cc1cc(C)cc(O[Si]23OCCN(CCO2)CCO3)c1` registered a log partition coefficient (logP) of 0.46. The same measure for `CN(C)CNC(=O)c1ccccc1`: 0.63; for `O=NN1CCCCCCCC1`: 2.04; for `CC(=O)Oc1cccc(C(F)(F)F)c1`: 2.63.

In the case of `O=S1(=O)NC(C2CCC2)=Nc2ccc(Cl)cc21`, the logP was 2.24.

`O=C(O)Cc1ccc(S(=O)(=O)F)cc1` yielded a lipophilicity (logP) of 1.86. The same measure for `CCCCN(SN(C)C(=O)ON=C(C)SC)C(C)=O`: 2.4. The same measure for `O=C1CCC(=O)N1c1cccc(C(F)(F)F)c1`: 1.26; for `CC(=O)Nc1cc(C)c(O)c(C)c1C`: 0.82. The same measure for `CO[C@@]12[C@@H]3N[C@@H]3CN1C1=C(C(=O)C(Nc3nc(C)c(C)s3)=C(C)C1=O)[C@@H]2COC(N)=O`: 1.29.

Usually logP stands for the decadic logarithm of the partition coefficient of the neutral form, usually between octanol and water.
